For series [1], the target named is T1, Thymidine phosphorylase (TP) (Escherichia coli, UniProt P07650).
T1 construct: purchased Sigma Aldrich, USA
Description: Mechanistic (kinetic) studies of TP inhibition. The class given is biochemical. The settings on record: E. coli TP; Lineweaver–Burk, Dixon plots. The text has this:
Kinetic studies are used for the investigation of chemical reactions in terms of their reaction rates, reaction mechanisms, and the factors that affect these parameters. Herein, it is used determine the type/mechanism of inhibition of dihydropyrimidone derivatives.
(§1) EZ-FIT, enzyme kinetics software (Perrella Scientific, Inc., Amherst, GA, USA) was used to calculate the IC50 values. In order to analyse the kinetic parameter, Grafit version 7.0 (Erithacus Software Ltd., Horley, UK) was used.

Series [2] concerns the target T1, Thymidine phosphorylase (TP). Kind of series: Thymidine phosphorylase inhibition assay (spectrophotometric, 290 nm). The class given is biochemical, E. coli. The settings on record: for inhibition at 500 µM: pH 7, E. coli TP, test compound 10 µL of 0.5 mM in 200 µL, thymidine substrate, 30 °C, pH 7.0, read-out: Thymidine Phosphorylase Inhibitory Activity % Inhibition; for IC50: E. coli TP, n = 3, NA: not active, read-out: Thymidine Phosphorylase Inhibitory Activity IC50 ± SEM. Here is the method: Thymidine phosphorylase (source: E. coli, EC Number 2.4.2.4), thymidine (substrate), and potassium phosphate monobasic (as buffer) were acquired from Sigma Aldrich, USA. […] Dimethylsulfoxide (DMSO), used as a solvent, was obtained from Fisher Scientific, Schwerte, Germany.
Reaction was performed in 96-well plates and in triplicates. The 200 µL reaction mixture was comprised of 10 µL of the test compound (0.5 mM; dissolved in DMSO), 150 µL of potassium phosphate buffer (pH 7.0, 50 mM), and 20 µL of TP enzyme (0.058 unit/well). The 96-well plate containing all these reagents was then incubated at 30 °C for 10 min.
SoftMax Pro 4.8 software (Molecular Devices, San Jose, CA, USA) was used to analyse the results.
as §1

The next series is described as follows: MTT cytotoxicity assay. The series is classed as cell-based. The settings on record: 3T3 mouse fibroblast cells, 48 h, test compounds 1 to 30 µM, NC: non-cytotoxic, read-out: Cytotoxicity Studies Cell Viability (%). The protocol: Cytotoxicity of active compounds were evaluated employing a standard MTT calorimetric assay. Mouse fibroblast (3T3 cell line) acquired from American Type Culture Collection (ATCC), Virginia, USA, was cultured in DMEM (Dulbecco’s modified eagle medium). In total, 5% FBS (fetal bovine serum), penicillin (100 IU/mL), and streptomycin ([…]) were then added to the medium in […] flasks, and kept in a CO2 incubator at 37 °C. The harvested cell was then diluted with a specific medium. Haemocytometer was used for the quantification of cells. After that, the culture of cell having concentration of 5x104 (cells/mL) was prepared, inoculated into 96-well plates (100 µL/well), and then incubated overnight. After incubation, the old medium was removed, and fresh medium (200 µL) was added. Then different concentrations of test compounds (ranging from 1 to 30 µM) were added. After incubation of 48 h, each well received 200 µL of MTT dye (0.5 mg/mL), and further incubated for a duration of 4 h. After 4 h, 100 µL of DMSO was introduced into each well of the 96-well plate. The reduction of MTT to formazan was measured by recording absorbance at 540 nm with the help of a microplate reader (SpectraMax 384, Molecular Devices, San Jose, CA, USA).

T1 sequence (P07650 whole entry): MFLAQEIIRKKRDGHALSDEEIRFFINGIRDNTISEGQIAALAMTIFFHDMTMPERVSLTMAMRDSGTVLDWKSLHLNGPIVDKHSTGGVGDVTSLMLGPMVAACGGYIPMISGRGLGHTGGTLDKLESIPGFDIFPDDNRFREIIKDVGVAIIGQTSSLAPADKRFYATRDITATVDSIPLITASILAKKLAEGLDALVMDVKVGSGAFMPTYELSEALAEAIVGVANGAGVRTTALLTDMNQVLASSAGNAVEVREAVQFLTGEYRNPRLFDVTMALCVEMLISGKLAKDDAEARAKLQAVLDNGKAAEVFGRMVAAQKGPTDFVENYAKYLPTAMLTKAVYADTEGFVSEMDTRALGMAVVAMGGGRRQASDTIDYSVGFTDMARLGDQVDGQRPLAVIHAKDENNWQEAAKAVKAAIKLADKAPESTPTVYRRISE

For orientation: inhibition means how much of the control response was suppressed. `O=c1[nH]c(=O)c2cc[nH]c2[nH]1` [7-Deazaxanthine, reference compound]: the “Type of Inhibition” value in series [1] was “Non-Competitive”. Further, in series [2], the inhibition at 500 µM was determined as 82%.
For orientation: viability means the share of living cells, or the viability signal relative to a control. Usually IC50 stands for the concentration needed to halve the response being measured. Turning to `COC(=O)C1=C(C)NC(=O)NC1CC(C)C` (centres unmarked) [Compound 21, Methyl 4-isobutyl-6-methyl-2-oxo-1,2,3,4-tetrahydropyrimidine-5-carboxylate], the viability at 48 h in the series “MTT cytotoxicity assay” was 55%. In addition, in series [2], the IC50 turned out to be 345.4 ± 0.5 µM and the inhibition at 500 µM came to 90.7%.
With `COC(=O)C1=C(C)NC(=O)NC1c1cc(Br)c(OC)c(OC)c1` (centres unmarked) [Compound 22, Methyl 4-(3-bromo-4,5-dimethoxyphenyl)-6-methyl-2-oxo-1,2,3,4-tetrahydropyrimidine-5-carboxylate], the viability at 48 h in “MTT cytotoxicity assay” is 76%. Besides, in series [2], the IC50 is 394 ± 4.3 µM and the inhibition at 500 µM was determined as 61.9%.
In the same order, the values of `COC(=O)C1=C(C)NC(=O)NC1c1ccsc1` (centres unmarked) [Compound 24, Methyl 6-methyl-2-oxo-4-(thiophen-3-yl)-1,2,3,4-tetrahydropyrimidine-5-carboxylate] are 82%, 350.6 ± 0.6 µM and 79.6%.
The corresponding values for `COC(=O)C1=C(C)NC(=O)NC1c1ccc(OC)c(OC)c1` (centres unmarked) [Compound 25, Methyl 4-(3,4-dimethoxyphenyl)-6-methyl-2-oxo-1,2,3,4-tetrahydropyrimidine-5-carboxylate] are 99%, 424.1 ± 0.9 µM and 59%.
On to `COC(=O)C1=C(C)NC(=O)NC1c1ccc(N(C)C)cc1` (centres unmarked) [Compound 26, Methyl 4-(4-(dimethylamino)phenyl)-6-methyl-2-oxo-1,2,3,4-tetrahydropyrimidine-5-carboxylate], for which the viability at 48 h in “MTT cytotoxicity assay” is 57%. Further, in series [2], the IC50 is 350 ± 3.7 µM and the inhibition at 500 µM stood at 92.3%.
As to `COC(=O)C1=C(C)NC(=O)NC1c1ccc(O)c(Cl)c1` (centres unmarked) [Compound 28, Methyl 4-(3-chloro-4-hydroxyphenyl)-6-methyl-2-oxo-1,2,3,4-tetrahydropyrimidine-5-carboxylate], the viability at 48 h in “MTT cytotoxicity assay” is 95%. In series [2], the IC50 is 404.6 ± 1 µM and the inhibition at 500 µM turned out to be 67.5%.
For `COC(=O)C1=C(C)NC(=O)NC1c1ccc(OC(C)=O)c(OC)c1` (centres unmarked) [Compound 29, Methyl 4-(4-acetoxy-3-methoxyphenyl)-6-methyl-2-oxo-1,2,3,4-tetrahydropyrimidine-5-carboxylate], the viability at 48 h in the series “MTT cytotoxicity assay” worked out at 80%. In series [2], the IC50 came to 400.5 ± 0.6 µM and the inhibition at 500 µM turned out to be 76%.
With `COC(=O)C1=C(C)NC(=O)NC1c1cc(OC)c(O)c(OC)c1` (centres unmarked) [Compound 30, Methyl 4-(4-hydroxy-3,5-dimethoxyphenyl)-6-methyl-2-oxo-1,2,3,4-tetrahydropyrimidine-5-carboxylate], the viability at 48 h in the series “MTT cytotoxicity assay” is 75%. Further, in series [2], the IC50 was 396.7 ± 1.5 µM and the inhibition at 500 µM amounted to 69.6%.
Take `COC(=O)C1=C(C)NC(=O)NC1c1ccc(C)s1` (centres unmarked) [Compound 32, Methyl 6-methyl-4-(5-methylthiophen-2-yl)-2-oxo-1,2,3,4-tetrahydropyrimidine-5-carboxylate]: the viability at 48 h in the series “MTT cytotoxicity assay” was 85%. Further, in series [2], the concentration for half-maximal inhibition (IC50) came out at 485.7 ± 1.5 µM and the inhibition at 500 µM turned out to be 58.3%.
In the same order, the values of `COC(=O)C1=C(C)NC(=O)NC1c1ccc(Cl)cc1` (centres unmarked) [Compound 34, Methyl 4-(4-chlorophenyl)-6-methyl-2-oxo-1,2,3,4-tetrahydropyrimidine-5-carboxylate] are 72%, 443.9 ± 0.9 µM and 66.3%.

The record behind these values is paper PMC10143232, “Dihydropyrimidone Derivatives as Thymidine Phosphorylase Inhibitors: Inhibition Kinetics, Cytotoxicity, and Molecular Docking” (Molecules, 2023).
